{
  "source": "paper PMC10458937",
  "about": "“Triose Phosphate Isomerase Structure-Based Virtual Screening and In Vitro Biological Activity of Natural Products as Leishmania mexicana Inhibitors” (Pharmaceutics, 2023)",
  "key": {"[1]": {"tested_on": "L. mexicana MNYC/BZ/62/M379 promastigotes", "test": "In vitro leishmanicidal evaluation on promastigotes (MTT), strain M379", "assay_type": "cell-based", "conditions": "read-out: Leishmania mexicana IC50 (µM ± SD) M379", "method": "(§1) The metabolic activity of the cells was determined using the method of 3-(4,5-Dimethylthiazol-2-yl)-2,5-diphenyltetrazolium bromide (MTT). The half-maximum inhibitory concentration (IC50) was determined using probit analysis. Three independent assays were each performed in triplicate. Biostat software was used to analyze the data for statistically significant data (p < 0.05)."}, "[2]": {"tested_on": "L. mexicana MHOM/MX/2017/UABJO17FCQEPS promastigotes", "test": "In vitro leishmanicidal evaluation on promastigotes (MTT), strain FCQEPS", "assay_type": "cell-based", "conditions": "48 h, read-out: Leishmania mexicana IC50 (µM ± SD) FCQEPS", "method": "as §1"}, "[3]": {"tested_on": "promastigote of both L. mexicana strains", "test": "In vitro leishmanicidal activity, promastigote of both L. mexicana strains (abstract)", "assay_type": "cell-based, Leishmania mexicana", "conditions": "rounded value of the abstract", "method": "Promastigotes from the reference strain of L. mexicana (MNYC/BZ/62/M379) and the autochthonous isolate of L. mexicana (MHOM/MX/2017/UABJO17FCQEPS) were used in the in vitro studies. Parasites were preserved in RPMI 1640 supplemented with 10% fetal bovine serum (FBS), 100 U/mL penicillin, 100 ug/mL streptomycin, and glutamine (2 mM). The parasites, in their logarithmic growth phase (5 × 10^5 parasites/mL), were incubated in 96-well plates with the compounds under different concentrations (0.78–100 µM) dissolved in dimethyl sulfoxide (DMSO) in a final volume of 200 µL for 48 h at 26 °C. Parasites in the presence of DMSO (0.2%) were included as a negative control. […] The metabolic activity of the cells was determined using the method of 3-(4,5-Dimethylthiazol-2-yl)-2,5-diphenyltetrazolium bromide (MTT). The half-maximum inhibitory concentration (IC50) was determined using probit analysis. Three independent assays were each performed in triplicate. Biostat software was used to analyze the data for statistically significant data (p < 0.05)."}, "[4]": {"test": "Cytotoxicity in murine macrophages (MTT)", "assay_type": "cell-based, mouse", "conditions": "mouse, 37 °C, read-out: J774.2 Cell Line CC50 (µM ± SD)", "method": "(§2) This assay was performed on mouse macrophages from the J774.2 cell line that were recloned from the original ascites and solid tumor J774.1 (according to the fabricant). The cells were cultured in RPMI medium supplemented with 10% SFB, […] penicillin, 100 ug/mL streptomycin, and glutamine (2 mM) at 37 °C and in a 5% CO2 atmosphere. The medium was changed at intervals of every 2 to 3 days. […] Cells in the presence of the maximum concentration of DMSO (0.2%) were included as a negative control. The metabolic activity of the cells was determined using the MTT method. The percentage of cell viability was calculated, and the mean cytotoxic concentration (CC50) was determined using probit analysis. Three independent assays were each performed in triplicate. The selectivity index (SI) was calculated for the promastigotes of L. mexicana and the autochthonous isolate (CC50/IC50)."}, "J774.2 cell line": {"tested_on": "J774.2 cell line", "test": "Cytotoxicity in murine macrophages (MTT)", "assay_type": "cell-based, mouse", "conditions": "48 h, 37 °C, read-out: J774.2 Cell Line CC50 (µM ± SD)", "method": "as §2"}, "[5]": {"conditions": "Leishmania mexicana, promastigotes, strain MNYC/BZ/62/M379, 48 h, 26 °C, MTT"}, "[6]": {"conditions": "Leishmania mexicana, promastigotes, strain MHOM/MX/2017/UABJO17FCQEPS, 26 °C, MTT"}},
  "note": "Where two headings read alike, the source gives them in different places.",
  "data": [
    {"molecule": "Glucantime", "values": [
      {"measurement": "IC50", "setting": "[1]; promastigotes, strain MNYC/BZ/62/M379, 48 h, 26 °C, MTT", "value": "134 ± 2.79", "unit": "µM"},
      {"measurement": "IC50", "setting": "[2]; promastigotes, strain MHOM/MX/2017/UABJO17FCQEPS, 26 °C, MTT", "value": "125 ± 11.6", "unit": "µM"},
      {"measurement": "IC50", "setting": "[3]", "value": 133, "unit": "µM"}
    ]},
    {"molecule": "C[C@H]1[C@H](C)CC[C@]2(C(=O)O)CC[C@]3(C)C(=CC[C@@H]4[C@@]5(C)CC[C@H](O)C(C)(C)[C@@H]5CC[C@]43C)[C@H]12", "note": "[Compound B-3, ursolic acid]", "values": [
      {"measurement": "IC50", "setting": "[1]; [5]", "value": "> 200", "unit": "µM"},
      {"measurement": "IC50", "setting": "[2]; [6]", "value": "87.2 ± 7.05", "unit": "µM"},
      {"measurement": "CC50 at 48 h", "setting": "[4]; J774.2 macrophage cells", "value": "49.2 ± 5.53", "unit": "µM"}
    ]},
    {"molecule": "CNC(=O)c1cc(Oc2ccc(NC(=O)Nc3ccc(Cl)c(C(F)(F)F)c3)cc2)ccn1", "note": "[Compound S-7, sorafenib]", "values": [
      {"measurement": "IC50", "setting": "[1]; Leishmania mexicana, 48 h", "value": "24.9 ± 3.08", "unit": "µM"},
      {"measurement": "IC50", "setting": "[2]; Leishmania mexicana", "value": "166 ± 18.1", "unit": "µM"},
      {"measurement": "CC50 at 48 h", "setting": "[4]", "value": "64.9 ± 9.58", "unit": "µM"}
    ]},
    {"molecule": "CC1(C)[C@@H](O)CC[C@]2(C)[C@H]3C(=O)C=C4[C@@H]5C[C@@](C)(C(=O)O)CC[C@]5(C)CC[C@@]4(C)[C@]3(C)CC[C@@H]12", "note": "[Compound S-3, glycyrrhetinic acid]", "values": [
      {"measurement": "IC50", "setting": "[1]; [5]", "value": "44.2 ± 5.03", "unit": "µM"},
      {"measurement": "IC50", "setting": "[2]; [6]", "value": "145 ± 12.1", "unit": "µM"},
      {"measurement": "CC50", "setting": "J774.2 cell line", "value": "> 100", "unit": "µM"}
    ]},
    {"molecule": "CCc1cc2c(cc1CC)CC(NC[C@H](O)c1ccc(O)c3[nH]c(=O)ccc13)C2", "note": "[Compound S-8, indacaterol]", "values": [
      {"measurement": "IC50", "setting": "[1]; [5]", "value": "55.1 ± 2.34", "unit": "µM"},
      {"measurement": "IC50", "setting": "[2]; [6]", "value": "56 ± 5.87", "unit": "µM"},
      {"measurement": "IC50", "setting": "[3]; Leishmania mexicana", "value": 55, "unit": "µM"},
      {"measurement": "CC50", "setting": "J774.2 cell line", "value": "> 100", "unit": "µM"}
    ]}
  ]
}
